Data set [1] has as its target PKCθ (Homo sapiens, UniProt Q04759). Briefly: PKCθ Scintiplate Assay. In kind it is biochemical. The conditions noted are these: average value when one or more samples were tested. As to the method: This assay detects the phosphorylation of a biotinylated substrate by kinase utilizing radiolabeled ATP (ATP γ P33). The enzyme is either recombinant full length PKCθ (Panvera, P2996) or the purified recombinant active kinase domain of full length PKCθ (amino acids 362-706). The substrate in this assay is a biotinylated peptide with a sequence of biotin-[…]-CONH2. The assay buffer is composed of 100 mM Hepes, pH7.5, 2 mM MgCl2, 20 mM β-glycerophosphate and 0.008% TritonX 100. A reaction mixture of ATP, ATP γ P33 (PerkinElmer), DTT, lipid activator, and the enzyme is prepared in the assay buffer and added to a 96 well polypropylene plate. The compound (diluted in DMSO in a separate 96-well polypropylene plate) is added to the reaction mixture and incubated at room temperature. Following the incubation, the peptide substrate is added to the reaction mixture to initiate the enzymatic reaction. The reaction is terminated with the addition of a stop solution (10 mM EDTA, 0.2% TritonX100, and 100 mM NaHPO4) and transferred from the assay plate to a washed streptavidin-coated 96 well scintiplate (PerkinElmer). The scintiplate is incubated at room temperature, washed in PBS with 0.1% TritonX 100, and counted in the 1450 Microbeta Trilux (Wallac, Version 2.60). Counts are recorded for each well as corrected counts per minute (CCPM). The counts are considered corrected because they are adjusted according to a P33 normalization protocol, which corrects for efficiency and background differences between the instrument detectors (software version 4.40.01).

For data set [2], the target named is T1, human PKCθ full length enzyme (Homo sapiens, UniProt Q04759).
T1 construct: human PKCθ full length enzyme (Panvera Catalog No. P2996); purchased Panvera P2996
Briefly: PKCθ IMAP Assay. The conditions noted are these: average value when one or more samples were tested; ATP 6 uM, PKCθ 1 nM. In kind it is biochemical. In outline: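 IMAP fluorescence polarization after 20 min with binding beads measured phosphorylation of 100 nM 5FAM-peptide. Reactions held 1 nM full-length human PKCθ, 6 uM ATP, 5% DMSO and DTT-containing buffer, 25 min at room temperature. Compounds tested as 2:1 serial dilutions; controls lacked ATP or enzyme.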

Usually IC50 stands for the concentration needed to halve the response being measured. Low readings indicate higher potency, high ones lower potency. What is called melting point is the temperature, or range, at which the solid turns liquid.

T1 sequence (Q04759 whole entry): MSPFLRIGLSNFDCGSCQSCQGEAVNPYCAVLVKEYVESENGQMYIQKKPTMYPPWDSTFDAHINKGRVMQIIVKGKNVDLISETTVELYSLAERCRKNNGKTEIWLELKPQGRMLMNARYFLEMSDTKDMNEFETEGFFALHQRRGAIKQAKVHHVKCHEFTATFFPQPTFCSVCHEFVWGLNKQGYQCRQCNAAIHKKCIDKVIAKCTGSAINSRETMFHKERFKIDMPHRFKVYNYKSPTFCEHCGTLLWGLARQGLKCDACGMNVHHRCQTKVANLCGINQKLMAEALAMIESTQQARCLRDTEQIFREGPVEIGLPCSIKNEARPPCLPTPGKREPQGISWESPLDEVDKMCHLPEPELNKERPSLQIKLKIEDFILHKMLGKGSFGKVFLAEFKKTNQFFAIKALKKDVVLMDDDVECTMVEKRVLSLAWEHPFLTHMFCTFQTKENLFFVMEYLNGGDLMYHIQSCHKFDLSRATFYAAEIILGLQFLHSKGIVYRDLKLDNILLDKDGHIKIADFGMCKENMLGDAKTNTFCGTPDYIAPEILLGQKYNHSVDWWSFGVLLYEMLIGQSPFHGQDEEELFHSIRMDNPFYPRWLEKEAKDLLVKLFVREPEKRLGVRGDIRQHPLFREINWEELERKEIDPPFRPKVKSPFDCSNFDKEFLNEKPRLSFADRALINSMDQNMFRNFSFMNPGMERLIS
Chain of PKCθ (Q04759 362-706 limits assumed): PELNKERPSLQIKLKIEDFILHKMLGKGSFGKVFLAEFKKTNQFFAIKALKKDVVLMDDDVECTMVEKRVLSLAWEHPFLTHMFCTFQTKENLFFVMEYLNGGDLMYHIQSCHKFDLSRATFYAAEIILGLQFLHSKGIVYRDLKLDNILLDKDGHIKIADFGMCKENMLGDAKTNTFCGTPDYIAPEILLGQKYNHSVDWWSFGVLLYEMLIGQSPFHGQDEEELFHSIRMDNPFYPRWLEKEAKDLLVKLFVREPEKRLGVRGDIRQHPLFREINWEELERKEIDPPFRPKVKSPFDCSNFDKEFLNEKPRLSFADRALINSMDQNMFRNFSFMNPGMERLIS

`N#Cc1cnc2sc(-c3ccc(C=O)cc3)cc2c1Nc1ccc2[nH]ccc2c1` [Compound 103, 2-(4-formylphenyl)-4-(1H-indol-5-ylamino)thieno[2,3-b]pyridine-5-carbonitrile] came in with a melting point of more than 260 °C. For the same molecule, 51 nM corresponded to half-maximal inhibition in data set [1] (IC50).
`N#Cc1cnc2sc(-c3ccccc3)cc2c1Nc1cccc2cc[nH]c12` [Compound 109, 4-(1H-indol-7-ylamino)-2-phenylthieno[2,3-b]pyridine-5-carbonitrile] displayed a melting point of more than 245 °C. Besides, the IC50 in data set [1] was more than 150000 nM.
For `N#Cc1cnc2sc(-c3ccccc3)cc2c1Nc1cccc2[nH]ccc12` [Compound 115, 4-(1H-indol-4-ylamino)-2-phenylthieno[2,3-b] pyridine-5-carbonitrile], in that order: more than 245 °C and 120 nM.
For `N#Cc1cnc2sc(-c3ccccc3)cc2c1NCCc1c[nH]cn1` [Compound 127, 4-{[2-(1H-imidazol-4-yl)ethyl]amino}-2-phenylthieno[2,3-b]pyridine-5-carbonitrile], in that order: more than 245 °C and 3000 nM.
Consider `N#Cc1cnc2sc(-c3ccccc3)cc2c1-c1ccc2[nH]ccc2c1` [Compound 131, 4-(1H-indol-5-yl)-2-phenylthieno[2,3-b]pyridine-5-carbonitrile], for which the melting point is more than 245 °C. In addition, the IC50 in data set [1] was more than 300000 nM.
In the case of `N#Cc1cnc2sc(-c3cccc(CN4CCN(CCO)CC4)c3)cc2c1Nc1ccc2[nH]ccc2c1` [Compound 148, 2-(3-{[4-(2-hydroxyethyl)piperazin-1-yl]methyl}phenyl)-4-(1H-indol-5-ylamino)thieno[2,3-b]pyridine-5-carbonitrile], the IC50 in data set [1] came out at 60 nM; in data set [2] it was 73 nM.
For `N#Cc1cnc2sc(-c3cccc(CNCCO)c3)cc2c1Nc1ccc2[nH]ccc2c1` [Compound 149, 2-(3-{[(2-hydroxyethyl)amino]methyl}phenyl)-4-(1H-indol-5-ylamino)thieno[2,3-b]pyridine-5-carbonitrile], in that order: 13 nM and 30 nM.
For `N#Cc1cnc2sc(-c3cccc(CN4CCN(CCN5CCOCC5)CC4)c3)cc2c1Nc1ccc2[nH]ccc2c1` [Compound 150, 4-(1H-indol-5-ylamino)-2-(3-{[4-(2-morpholin-4-ylethyl)piperazin-1-yl]methyl}phenyl)thieno[2,3-b]pyridine-5-carbonitrile], in that order: 41 nM and 160 nM.
For `N#Cc1cnc2sc(-c3cccc(CN(CCO)CCO)c3)cc2c1Nc1ccc2[nH]ccc2c1` [Compound 151, 2-(3-{[bis(2-hydroxyethyl)amino]methyl}phenyl)-4-(1H-indol-5-ylamino)thieno[2,3-b]pyridine-5-carbonitrile], in that order: 88 nM and 77 nM.
`CN1CCN(Cc2ccccc2-c2cc3c(Nc4ccc5[nH]ccc5c4)c(C#N)cnc3s2)CC1` [Compound 185, 4-(1H-indol-5-ylamino)-2-{2-[(4-methylpiperazin-1-yl)methyl]phenyl} thieno[2,3-b]pyridine-5-carbonitrile] displayed a melting point of 226 to 228 °C. Further, in data set [1], it took 530 nM to reach half-maximal inhibition (IC50).
In the case of `N#Cc1cnc2sc(-c3ccccc3CN3CCC(O)CC3)cc2c1Nc1ccc2[nH]ccc2c1` [Compound 186, 2-{2-[(4-hydroxypiperidin-1-yl)methyl]phenyl}-4-(1H-indol-5-ylamino)thieno [2,3-b]pyridine-5-carbonitrile], the results for the IC50 in data set [1] and in data set [2] were 290 nM and 1600 nM, respectively.
For `Cc1c(Nc2c(C#N)cnc3sc(-c4cccc(CN(C)C)c4)cc23)ccc2[nH]ccc12` [Compound 187, 2-{3-[(dimethylamino)methyl]phenyl}-4-[(4-methyl-1H-indol-5-yl)amino]thieno[2,3-b]pyridine-5-carbonitrile], the figures for the IC50 in data set [1] and in data set [2] were 4.5 nM and 8 nM, respectively.
In turn, `CN1CCN(Cc2ccc(-c3cc4c(Nc5ccc6[nH]ccc6c5)c(C#N)cnc4s3)nc2)CC1` [Compound 203, 4-(1H-indol-5-ylamino)-2-{5-[(4-methylpiperazin-1-yl)methyl]pyridine-2-yl}thieno[2,3-b]pyridine-5-carbonitrile] gave a melting point of more than 245 °C. The IC50 in data set [1] is 110 nM.
`CN(C)Cc1ccc(-c2cc3c(Nc4ccc5[nH]ccc5c4)c(C#N)cnc3s2)nc1` [Compound 204, 2-{5-[(dimethylamino)methyl]pyridin-2-yl}-4-(1H-indol-5-ylamino)thieno[2,3-b] pyridine-5-carbonitrile]: the figures for the IC50 in data set [1] and in data set [2] were 110 nM and 180 nM, respectively.
For `CN(C)Cc1nc(-c2cc3c(Nc4ccc5[nH]ccc5c4)c(C#N)cnc3s2)cs1` [Compound 208, 2-{2-[(dimethylamino)methyl]-1,3-thiazol-4-yl}-4-(1H-indol-5-ylamino)thieno[2,3-b]pyridine-5-carbonitrile], in that order: 50 nM and 100 nM.
For `CN(C)C(=O)c1cccc(-c2cc3c(Nc4ccc5[nH]ccc5c4)c(C#N)cnc3s2)n1` [Compound 209, 6-[5-cyano-4-(1H-indol-5-ylamino)thieno[2,3-b]pyridin-2-yl]-N,N-dimethylpyridine-2-carboxamide], in that order: 170 nM and 150 nM.
For `CN(C)Cc1ccc(-c2cc3c(Nc4ccc5[nH]ccc5c4)c(C#N)cnc3s2)s1` [Compound 211, 2-{5-[(dimethylamino)methyl]-2-thienyl}-4-(1H-indol-5-ylamino)thieno[2,3-b]pyridine-5-carbonitrile], the IC50 in data set [1] was found to be 34 nM; in data set [2], 82 nM.
For the molecule `N#Cc1cnc2sc(C#Cc3ccccn3)cc2c1Nc1ccc2[nH]ccc2c1` [Compound 213, 4-(1H-indol-5-ylamino)-2-(pyridine-2-ylethynyl)thieno[2,3-b]pyridine-5-carbonitrile], the results for the IC50 in data set [1] and in data set [2] were 75 nM and 290 nM, respectively.
For the molecule `N#Cc1cnc2sc(C#Cc3cccnc3)cc2c1Nc1ccc2[nH]ccc2c1` [Compound 214, 4-(1H-indol-5-ylamino)-2-(pyridin-3-ylethynyl)thieno[2,3-b]pyridine-5-carbonitrile], the IC50 in data set [1] came to 16 nM; in data set [2], 190 nM.
Consider `CN1CCN(Cc2cccc(C#Cc3cc4c(Nc5ccc6[nH]ccc6c5)c(C#N)cnc4s3)n2)CC1` [Compound 216, 4-(1H-indol-5-ylamino)-2-({6-[(4-methylpiperazin-1-yl)methyl]pyridin-2-yl}ethynyl)thieno[2,3-b]pyridine-5-carbonitrile], for which the IC50 in data set [1] amounted to 90 nM; in data set [2] it was 320 nM.
For `CN(C)Cc1cccc(C#Cc2cc3c(Nc4ccc5[nH]ccc5c4)c(C#N)cnc3s2)n1` [Compound 217, 2-({6-[(dimethylamino)methyl]pyridin-2-yl}ethynyl)-4-(1H-indol-5-ylamino)thieno[2,3-b]pyridine-5-carbonitrile], in that order: 59 nM and 69 nM.
For `N#Cc1cnc2sc(C#Cc3cccnc3)cc2c1Nc1cccc2[nH]ccc12` [Compound 218, 4-(1H-indol-4-ylamino)-2-(pyridin-3-ylethynyl)thieno[2,3-b]pyridine-5-carbonitrile], in that order: 34 nM and 52 nM.
For `CN1CCN(CCC#Cc2cc3c(Nc4cccc5[nH]ccc45)c(C#N)cnc3s2)CC1` [Compound 222, 4-(1H-indol-4-ylamino)-2-[4-(4-methylpiperazin-1-yl)but-1-yn-1-yl]thieno[2,3-b]pyridine-5-carbonitrile], in that order: 170 nM and 150 nM.
For the molecule `CN(C)CC#Cc1cc2c(Nc3ccc4[nH]ccc4c3)c(C#N)cnc2s1` [Compound 223, 2-[3-(dimethylamino)prop-1-yn-1-yl]-4-(1H-indol-5-ylamino)thieno[2,3-b]pyridine-5-carbonitrile], the IC50 in data set [1] was 88 nM; in data set [2] it was 1400 nM.
For `CCN(CC)CC#Cc1cc2c(Nc3ccc4[nH]ccc4c3)c(C#N)cnc2s1` [Compound 225, 2-[3-(diethylamino)prop-1-yn-1-yl]-4-(1H-indol-5-ylamino)thieno[2,3-b]pyridine-5-carbonitrile], in that order: 220 nM and 440 nM.
Turning to `N#Cc1cnc2sc(C#Cc3ccncc3)cc2c1Nc1ccc2[nH]ccc2c1` [Compound 226, 4-(1H-indol-5-ylamino)-2-(pyridin-4-ylethynyl)thieno[2,3-b]pyridine-5-carbonitrile], the IC50 was 76 nM in data set [1] and 570 nM in data set [2].
For `N#Cc1cnc2sc(C#Cc3cn[nH]c3)cc2c1Nc1ccc2[nH]ccc2c1` [Compound 227, 4-(1H-indol-5-ylamino)-2-(1H-pyrazol-4-ylethynyl)thieno[2,3-b]pyridine-5-carbonitrile], in that order: 150 nM and 290 nM.

Source of the values: patent US20070082880A1 (priority 2005, published 2007).
